According to publication PMC9959265, “Permethrin as a Potential Furin Inhibitor through a Novel Non-Competitive Allosteric Inhibition” (Molecules, 2023):

What was measured:
trypsin = assay: Inhibition effect on trypsin (control protease); type: biochemical; conditions: Figure S1E
Hep-G2 cells = assay: Cellular cytotoxicity (CCK8), Hep-G2; type: cell-based, human; conditions: Hep-G2 (high furin expression), 24 or 48 h
Description: (§1) Furin is highly expressed in liver cancer cells and has specific effects on hepatocellular carcinoma. Therefore, human hepatocellular carcinoma cells Hep-G2 were selected as experimental cells, cervical carcinoma cells HeLa with similar furin expression in Hep-G2 were selected as control, and human permanent hepatocytes L-02 were selected as negative control. DMEM was used for HeLa, and 1640 medium was used for Hep-G2 and L-02. After incubation for 24 h with 100 μL complete medium in 96-well plates with 8000 cells per well, the medium was aspirated, 100 μL serum-free medium containing a concentration gradient of the compound was added and the samples were incubated. After 24 or 48 h the drug-containing medium was aspirated and 100 μL medium solution containing 10% CCK8 was added, subsequently, the absorbance was measured at 450 nm using a microplate reader after 1 h of incubation.

HeLa cells = assay: Cellular cytotoxicity (CCK8), HeLa; type: cell-based; conditions: HeLa (high furin expression), 24 or 48 h
Description: as §1

L-02 cells = assay: Cellular cytotoxicity (CCK8), L-02; type: cell-based, human; conditions: L-02 normal liver cells (low furin expression), 24 or 48 h
Description: as §1

furin [1] = target: T1, furin (Homo sapiens, UniProt P09958)
T1 sequence (P09958 108-574 limits assumed): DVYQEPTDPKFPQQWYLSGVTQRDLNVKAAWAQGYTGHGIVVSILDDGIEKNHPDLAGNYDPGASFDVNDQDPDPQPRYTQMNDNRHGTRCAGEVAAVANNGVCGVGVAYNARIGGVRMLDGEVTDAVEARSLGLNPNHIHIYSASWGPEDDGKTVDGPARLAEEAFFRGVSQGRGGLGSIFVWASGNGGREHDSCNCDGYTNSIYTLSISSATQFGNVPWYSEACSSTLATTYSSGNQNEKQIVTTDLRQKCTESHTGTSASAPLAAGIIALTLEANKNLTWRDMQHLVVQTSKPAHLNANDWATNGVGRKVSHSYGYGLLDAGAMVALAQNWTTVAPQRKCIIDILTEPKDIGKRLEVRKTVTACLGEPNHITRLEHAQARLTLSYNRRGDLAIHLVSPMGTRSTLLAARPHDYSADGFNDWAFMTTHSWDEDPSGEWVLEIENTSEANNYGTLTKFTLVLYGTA
Description: For the measurement of enzymatic kinetics and inhibition kinetics, the substrate concentration gradients were set to 0 μM, 2 μM, 5 μM, 10 μM, 20 μM, 40 μM, 60 μM, 80 μM, 100 μM, 120 μM, and the compound concentration gradients to 0 μM, 25 μM, 50 μM, 100 μM. Furin was added to 100 mM HEPES assay system buffer (pH 6.0, containing 0.5% Triton X-100 and 5 mM CaCl2), followed by different concentrations of the compounds to be tested, preincubated at 37 °C for 5 min. Different concentrations of the substrate were added; the sample was incubated at 37 °C for 35 min, and quenched with 1% formic acid. The initial rate of the enzymatic reaction of furin was tested and the curve was plotted.

furin [2] = target: T1, furin; assay: Furin activity / inhibitor screening assay with Boc-R-V-R-R-AMC substrate; type: biochemical; design: His tag; host or cells: E. coli BL21 (DE3)
Description: Boc-Arg-Val-Arg-Arg-AMC (Boc-R-V-R-R-AMC) was used as a substrate for the detection of furin. It carries an AMC ([…]) moiety that fluoresces at an excitation wavelength of 370 nm and an emission wavelength of 460 nm.
The reaction was then incubated for 90 min at 37 °C, supplemented with 40 μM substrate, quenched using 1% formic acid and the enzyme activity was monitored using a Thermo Scientific Varioskan Flash Multi-Mode Microplate Reader.

CC1(C)C(C=C(Cl)Cl)C1C(=O)OCc1cccc(Oc2ccccc2)c1 (stereo not drawn) [YJJ-B0887, permethrin]
inhibitory activity against trypsin (trypsin): to neither enzyme, permethrin has inhibitory activity
cytotoxic effect (Hep-G2 cells): stronger cytotoxic effect
cytotoxic effect (HeLa cells): higher cytotoxic effect
cytotoxic effect (L-02 cells): much weaker
mode of inhibition (furin [1]): non-competitive inhibitor
Km of furin on addition of inhibitor (furin [1]; permethrin 0, 25, 50, 100 μM): does not change
maximum reaction rate of furin on addition of inhibitor (furin [1]; permethrin 0, 25, 50, 100 μM): decreases
inhibition at 50 µM (furin [2]; 50 μM compound, read-out: Inhibition Rate (50 μM)): 55.9%
IC50 (furin [2]; furin, 40 μM Boc-R-V-R-R-AMC, pH 6.0, 37 °C): 38.7 µM
